# Measurements: US20240199555A1, “APPLICATIONS OF BIASED LIGANDS OF THE SEROTONIN 5-HT7 RECEPTOR FOR THE TREATMENT OF PAIN, MULTIPLE SCLEROSIS AND THE CONTROL OF THERMOREGULATION” (Centre National de la Recherche Scientifique, priority 2021, published 2024)
# Columns and labels:
# 5-HT7(b) receptors = 5-HT7(b) receptors (Homo sapiens, UniProt P34969); experiment: BRET between 5-HT7-RLuc and Venus-mini G proteins (G protein recruitment); assay type: cell-based
# Experimental: For −mGi, mG12 and mGq cells were also transfected with a receptor described as positively coupled to the G protein: Cells expressing the Adenosine 2 receptor A2R, the Histamine3 receptor H3R or the Ghrelin receptor GHSR were stimulated with adenosine, imetit or ghrelin respectively. Ligand mediated BRET changes are expressed as induced BRET changes which were generated by subtracting at each point the signal obtained on cells incubated with PBS (without ligand).
# To evaluate Gαs, Gαq, Gαi recruitment, cells were transiently transfected with 5-HT7R(b) C—terminally fused with donor Rluc (5-HT7R-Rluc) and acceptor NESVenus. mGs, or NES-Venus-mGsq or NES-Venus-mGsi (kindly provided by Pr. N. A. Lambert, Augusta University, Augusta, USA) (Ayoub, M. A., Landomiel, F., Gallay, N., Jegot, G., Poupon, A., Crepieux, P., and Reiter, E. (2015) Assessing Gonadotropin Receptor Function by Resonance Energy Transfer-Based Assays. Front Endocrinol (Lausanne) 6, 130; Wan, Q., Okashah, N., Inoue, A., Nehme, R., Carpenter, B., Tate, C. G., and Lambert, N. A. (2018) Mini G protein probes for active G protein-coupled receptors (GPCRs) in live cells. […] Data were plotted and analysed using GraphPad Prism 4 software for Windows (GraphPad Software Inc, San Diego, CA, USA). […]
# 5-HT7R / β-arrestin2 = 5-HT7R / β-arrestin2 (Homo sapiens (Human), UniProt P34969); experiment: β-arrestin 2 BRET in HEK-293 cells transfected with 5-HT7R; assay type: cell-based; settings: wild type 5-HT7R, intramolecular biosensor
# Chain of 5-HT7R / β-arrestin2 (P34969 1-432): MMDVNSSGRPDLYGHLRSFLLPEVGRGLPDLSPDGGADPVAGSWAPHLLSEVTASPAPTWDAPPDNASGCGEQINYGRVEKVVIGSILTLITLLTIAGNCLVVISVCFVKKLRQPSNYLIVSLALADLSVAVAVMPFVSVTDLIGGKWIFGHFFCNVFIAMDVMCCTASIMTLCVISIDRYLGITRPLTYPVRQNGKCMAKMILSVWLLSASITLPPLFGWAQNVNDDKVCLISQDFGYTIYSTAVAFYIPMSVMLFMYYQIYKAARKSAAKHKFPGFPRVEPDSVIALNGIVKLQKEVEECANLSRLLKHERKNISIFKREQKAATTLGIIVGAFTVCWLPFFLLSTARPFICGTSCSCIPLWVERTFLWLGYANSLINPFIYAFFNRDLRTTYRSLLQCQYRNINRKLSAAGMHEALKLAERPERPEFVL
# Experimental: FIG. 8: Serodolin-induced ERK phosphorylation is dependent on β-arrestin 2 recruitment. (A) HEK-293 or KO β-arrestin HEK-293 cells were transiently transfected with HA-5-HT7R and stimulated with 5-CT (10 μM), Serodolin (10 μM) or Vehicle (0.1% DMSO diluted in PBS solution) used as a control for 7 min. Representative blots of three independent experiments are illustrated. (B) Quantification of p-ERK and p-c-SRC were performed using Alphascreen technology. Data are means±SEM of values obtained in three independent experiments. (C) HEK-293 cells were transiently transfected with HA-h5-HT7R with β-arrestin2 BRET biosensor (Rluc-Arrestin-YPET), then incubated with increasing doses of 5-CT, or Serodolin (10^-11 to 10^-5 M). Ligand mediated BRET changes are expressed as induced BRET changes which were generated by subtracting at each point the signal of the cells incubated with PBS (without ligand). Data were fitted using non-linear regression using GraphPad Prism software. […]
# The inventors then investigated whether the Serodolin-induced β-arrestin recruitement using BRET experiments. […] After transfection of 5-HT7R-RLuc and arrestin2-YFP used as a BRET pair, the inventors evaluated the ability of 5-HT7R ligands to recruit β-arrestin. […]
# [1] = Pharmacokinetic study in plasma and brain; assay type: in vivo, C57BL/6 mice; settings: 5 mg/kg, subcutaneous
# Experimental: FIG. 20: Pharmacokinetic study of E55888 and Serodolin. Concentration-time profile of E55888 (reference agonist) and Serodolin in plasma (A) and brain (B) following subcutaneous injection of a unique dose 5 mg/kg of each compound in C57BL/6 mice. Data represent the mean concentration±SEM of n=4 each time point.
# The pharmacokinetic study was undertaken to evaluate and compare the quantity of Serodolin and E55888 in plasma and brain samples from C57BL/6 mice (Janvier, Le Genest France) at several time points. Seven weeks old C57BL/6 mice (n=4 animals per group) received by subcutaneous injection a unique dose (5 mg/kg) of Serodolin or E55888 (U103013S, Achemblock). Control group received vehicle (solution of 20% DMSO and 5% Tween 80 diluted in NaCl). […] Blank vehicle mouse brains homogenates and plasma were used to established standard curves of Serodolin or E55888. […] Study samples, brains homogenates and plasma, were prepared for protein precipitation by adding 85 μL of acetonitrile+5-CT to 20 μL of samples. LC-HRMS analysis for PK studies were performed on a maXis Q-TOF mass spectrometer (Bruker, Bremen, Germany) coupled to an U3000 RSLC UHPLC system (Dionex, Germering, Germany). Separation was obtained using an Acquity UPLC BEH C18 column (2.1×50 mm; 1.7 μm) (Waters, Saint-Quentin-en-Yvelines, France) thermostated at 40° C. with a gradient of water (solvent A) and acetonitrile (solvent B), both acidified with 0.1% formic acid at 500 μL/min. […] The samples were randomized prior analysis; 1.25 μL were injected for plasma and 8 μL for brains. […] Area were integrated from extracted ion chromatograms (EIC) of [M+H]+ ions using QuantAnalysis 4.4 software (Bruker) with a tolerance of ±0.005 u.
# The pharmacokinetics profile of both compounds were evaluated. The inventors used liquid chromatography tandem mass spectrometry (UPLC-MS/MS) method to perform PK study and measure Serodolin vs E55888 levels in vivo.
# Chain of 5-HT7(b) receptors (P34969 whole entry, looked up): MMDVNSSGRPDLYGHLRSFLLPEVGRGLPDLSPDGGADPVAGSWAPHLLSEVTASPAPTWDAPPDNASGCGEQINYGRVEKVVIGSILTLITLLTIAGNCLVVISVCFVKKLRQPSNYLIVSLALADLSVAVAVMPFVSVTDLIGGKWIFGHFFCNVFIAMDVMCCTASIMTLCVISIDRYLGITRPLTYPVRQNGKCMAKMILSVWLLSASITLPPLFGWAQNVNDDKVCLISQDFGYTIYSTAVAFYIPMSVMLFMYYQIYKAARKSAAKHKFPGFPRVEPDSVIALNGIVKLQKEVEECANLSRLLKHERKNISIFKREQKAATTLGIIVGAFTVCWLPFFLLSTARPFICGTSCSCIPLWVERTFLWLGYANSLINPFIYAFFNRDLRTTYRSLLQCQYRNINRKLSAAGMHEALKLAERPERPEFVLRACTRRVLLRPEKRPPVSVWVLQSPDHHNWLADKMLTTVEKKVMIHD
smiles,measurement,setting,value
O=c1[nH]c2ccccc2n1CN1CCN(c2ccc(F)cc2)CC1 [Serodolin],Gαs recruitment,5-HT7(b) receptors; mGs BRET,behaved as inverse for Gαs recruitment
same,"Gαi, Ga12 or Gαq recruitment","5-HT7(b) receptors; mGsi, mG12, mGsq BRET","neither classical (5-CT, SB 269970) nor biased 5-HT7R ligands (Serodolin) were able to induce the Gαi, Ga12 or Gαq recruitment"
same,BRET signal of RLuc-arrestin2-YPET biosensor,5-HT7R / β-arrestin2,concentration-dependent increase of BRET signal
same,passage of the brain blood barrier,[1],ability to pass the brain blood barrier
same,time of maximum of detection,[1]; both in plasma and brain,15 to 30 min
same,maximum of detection in brain,[1]; brain,0.4 ± 0.8 µg/mL
same,maximum of detection in plasma,[1]; plasma,2.9 ± 0.8 µg/mL
same,time after which eliminated / undetectable,[1]; plasma and brain,240 min
